In publication PMC7048748, “Anxiolytic Drug FGIN-1-27 Ameliorates Autoimmunity by Metabolic Reprogramming of Pathogenic Th17 Cells” (Scientific Reports, 2020):

Experiments:
TSPO = target: T1, TSPO (Rattus norvegicus, UniProt P16257); assay: TSPO (BZDp) antagonist radioligand displacement assay; assay type: binding
T1 construct: Eurofins Cerep (France), contract assay
Excerpt: We explored the mechanism of action for FGIN-1-27 and whether the effect of FGIN-1-27 on Th17 differentiation was driven by TSPO, the reported target of this compound. We used two approaches: first, we investigated the correlation between FGIN-1-27 induced IL-17 down-regulation and binding to TSPO. For the binding studies, we used a biochemical radio ligand displacement assay with the well-characterized TSPO ligand PK-11195 as a tracer. […] Secondly, we purified CD4^+ T cells from spleen and lymph nodes of mice that lacked global expression of TSPO (TSPO KO mice)[19]. We added FGIN-1-27 to the cultures of CD4^+ T cells from controls or TSPO KO mice that were induced towards the Th17 differentiation program.
FGIN-1-27 were tested at 8 doses (0.3–40 µM) in the TSPO (BZDp) antagonist radioligand displacement assay at Eurofins Cerep (France). Radiolabeled PK11195 was used as a control and TSPO binding was calculated as a percent inhibition of control specific binding using the formula 100-(measured specific binding*100/control specific binding).
(h) Dose response plot showing effect of FGIN-1-27 on intracellular IL-17 and viability in pre- differentiated Th17 cells after re- stimulation. Data is normalized against […]
(i) Mean clinical scores of mice following active induction of EAE. Mice were injected i/p twice daily with vehicle or FGIN-1-27 for 7 days. Data are pooled from 5 mice/group. […]

Th17 cells = assay: Intracellular metabolites by CE-MS; assay type: cell-based, mouse
Procedure: CD4 T cells were differentiated under Th17 polarization conditions and were either treated with DMSO (control) or FGIN-1-27. The error bars represent SD. (a) Genomic browser screenshots of IL-17a, IL-17f and Rorc loci depicting normalized RNA-seq read coverage (RPM) in Th17 cells treated with DMSO or FGIN-1-27 for 24 hours. […] (c) Heat map showing differentially expressed genes encoding glycolytic enzymes in Th17 cells treated with DMSO or FGIN-1-27 for 24 hours (d) Glycolytic metabolites measured in Th17 cells treated with DMSO or FGIN-1-27 for 72 hours. (e) Metabolites in the TCA cycle were measured in Th17 cells treated with DMSO or FGIN-1-27 for 72 hours.
8 million cells treated with either DMSO or FGIN-1-27 were used for extraction of intracellular metabolites. The cells were washed twice with 5% mannitol and treated with methanol to inactivate the enzymes. Next, the cell extract was treated with Milli-Q water containing internal standards (H3304-1002, Human Metabolome Technologies, inc., Tsuruoka, Japan) and left at rest for another 30 s. The extract was obtained and centrifuged at 2,300 ×g and 4 °C for 5 min and then 800 µL of upper aqueous layer was centrifugally filtered through a Millipore 5-kDa cutoff filter at 9,100 ×g and 4 °C for 120 min to remove proteins. The filtrate was centrifugally concentrated and re-suspended in 50 µL of Milli-Q water for CE-MS analysis. Cationic compounds were measured in the positive mode of CE-TOFMS and anionic compounds were measured in the positive and negative modes of CE-MS/MS according to the methods developed by Soga, et al.[39],[40]. Peaks detected by CE-TOFMS and CE-MS/MS were extracted using automatic integration software (MasterHands, Keio University, Tsuruoka, Japan and MassHunter Quantitative Analysis B.04.00, Agilent Technologies, Santa Clara, CA, USA, respectively) in order to obtain peak information including m/z, migration time (MT), and peak area. The peaks were annotated with putative metabolites from the HMT metabolite database based on their MTs in CE and m/z values determined by TOFMS. The tolerance range for the peak annotation was configured at ±0.5 min for MT and ±10 ppm for m/z. In addition, concentrations of metabolites were calculated by normalizing the peak area of each metabolite with respect to the area of the internal standard and by using standard curves, which were obtained by three-point calibrations. Hierarchical cluster analysis (HCA) and principal component analysis (PCA) were performed by Human Metabolome proprietary software, PeakStat and SampleStat, respectively. Detected metabolites were plotted on metabolic pathway maps using VANTED (Visualization and Analysis of Networks containing Experimental Data) software.

T1 sequence (P16257 whole entry): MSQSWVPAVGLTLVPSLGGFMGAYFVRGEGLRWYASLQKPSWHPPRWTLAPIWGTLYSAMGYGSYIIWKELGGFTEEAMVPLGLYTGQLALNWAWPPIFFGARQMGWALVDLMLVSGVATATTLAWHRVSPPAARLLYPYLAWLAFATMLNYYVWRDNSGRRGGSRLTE

CCCCCCN(CCCCCC)C(=O)Cc1c(-c2ccc(F)cc2)[nH]c2ccccc12 [FGIN-1-27, N, N-di-n-hexyl 2-(4-fluorophenyl) indole-3-acetamide]
displacement of PK-11195 (TSPO; 0.3 µM, lowest validated testing concentration): more than 90%
binding to TSPO (TSPO; 0.3–40 µM): high affinity
TCA cycle intermediates (citric acid, cis-aconitic acid, 2-hydroxyglutaric acid, malic acid) (Th17 cells; 72 hours): additionally reduced
lactate (Th17 cells; 72 hours): unchanged levels
pyruvate (Th17 cells; 72 hours): lower levels
amino acids (Th17 cells; 72 hours post compound treatment): significant increase
upper glycolytic intermediates (F6P, F1,6P, 3-PG, 2-PG) (Th17 cells; 72 hours, vs DMSO): substantially reduced
